# Where a SMILES comes first, the peptide text is derived from it. The star is where a group is joined. pNA = O=[N+]([O-])c1ccc(N*)cc1; Cbz = O=C(OCc1ccccc1)*
# Key:
# trypsin = experiment: Degradation of 33-mer and 26-mer gliadin peptides by trypsin; type: in vitro ADME; conditions: peptide 250 µg/ml; trypsin 1 µg/ml in 50 mM ammonium bicarbonate, pH 8.0; sampled at t = 0 and 24 h; RP-HPLC
# Protocol: (§1) Synthetic highly immunogenic peptides derived from α2-gliadin ([…]; 33-mer) or γ-gliadin ([…]; 26-mer) were synthesized at a purity of 95% (21st Century Biochemicals, Marlboro, MA), dissolved in deionized water to 10 mg/ml. The peptides (final concentration 250 µg/ml) were incubated with trypsin or chymotrypsin (1 µg/ml in 50 mM ammonium bicarbonate, pH 8.0), or pepsin (1 µg/ml in 0.1 M HCl, pH 1.0) or strain WSA-8 (R. aeria) in saliva ion buffer (OD620 1.2, pH 7.0). Degradation of the 33-mer and 26-mer over time was monitored in 100 µl aliquots by RP-HPLC as reported previously.
# (§2) The 100 µl sample aliquots were mixed with 900 µl buffer A containing 0.1% (v/v) trifluoroacetic acid (TFA), filtered and analyzed by RP-HPLC using a HPLC Model 715 (Gilson, Middleton, WI) and a C-18 column (TSK-GEL 5 µm, ODS-120T, 4.6×250 mm, TOSOHaas, Montgomeryville, PA). Peptides were eluted using a linear gradient from 0% to 55% buffer B containing 80% (v/v) acetonitrile and 0.1% (v/v) TFA over a 75 min time interval at a flow rate of 1.0 ml/min. The eluate was monitored at 219 and 230 nm and eluting fractions were collected using peak width and peak sensitivity settings of 1.2 and 5, respectively (Unipoint version 3.3, Gilson). […]
# (§3) Figure 4 Degradation of the 33-mer by mammalian enzymes and by enzymes associated with R. aeria. […] Degradation of the 33-mer in incubation aliquots was monitored by RP-HPLC. […]
# pepsin = experiment: Degradation of 33-mer and 26-mer gliadin peptides by pepsin; type: in vitro ADME; conditions: peptide 250 µg/ml; pepsin 1 µg/ml in 0.1 M HCl, pH 1.0; sampled at t = 0 and 24 h; RP-HPLC
# Protocol: as §1, §2, §3
# chymotrypsin = experiment: Degradation of 33-mer and 26-mer gliadin peptides by chymotrypsin; type: in vitro ADME; conditions: peptide 250 µg/ml; chymotrypsin 1 µg/ml in 50 mM ammonium bicarbonate, pH 8.0; sampled at t = 0 and 24 h; RP-HPLC
# Protocol: as §1, §2, §3
# WSA-8 (R. aeria) [1] = experiment: Degradation and fragment analysis of 33-mer and 26-mer in a suspension of WSA-8; type: in vitro ADME, Rothia aeria; conditions: peptide 250 µg/ml; WSA-8 (R. aeria) in saliva ion buffer, OD620 1.2, pH 7.0; sampled at 0, 30, 60, 120 min; RP-HPLC
# Protocol: as §1
# as §2, with “Peptides were eluted using a linear gradient from 0% to 55% buffer B containing 80% (v/v) acetonitrile and 0.1% (v/v) TFA over a 75 min time interval at a flow rate of 1.0 ml/min.” left out
# All dried peaks were dissolved in 25 µl of a solution containing 5% acetonitrile and 0.1% formic acid. […] The raw MS/MS data of the peptide ions in each of the analyzed samples were searched against an in-house generated database containing the sequences of the 33-mer and the 26-mer using SEQUEST software (Bioworks Browser 3.3.1, Thermo-Finnigan). […]
# [2] = bacterial suspension in saliva ion buffer (OD620 1.2); conditions: up to 24 h
# [3] = WSA-8 cells (OD620 1.2) in 20 mM Tris solution, pH 2.0; conditions: Rothia aeria (strain WSA-8), up to 72 h
# WSA-8 (R. aeria) [4] = experiment: pH activity analysis: Z-YPQ-pNA hydrolysis by WSA-8 cells; type: biochemical, Rothia aeria; conditions: Z-YPQ-pNA 200 µM, WSA-8 cells OD620 1.2, 20 mM Tris, 405 nm, activity not reactivated at neutral pH
# Protocol: Figure 6 Gliadin zymography (6%) of Rothia strains and pH activity analysis. In the zymogram gels 150 µl cells (OD620 5.0) were applied per lane. Lane 1, strain WSA-2B (R. mucilaginosa); lanes 2: strain WSA-8 (R. aeria), lane 3: strain WSA-26 (R. mucilaginosa); lane 4: strain ATCC 25296 (R. mucilaginosa). A, gel developed at pH 7.0; B, gel developed at pH 3.0. C, Z-YPQ-pNA (200 µM) hydrolysis by WSA-8 cells (OD620 1.2) measured in 20 mM Tris solutions ranging in pH from 2.0 to 10.0. Measurements at 405 nm were carried out hourly for the first 6 hours and after 24 h and 72 h.
# To determine protease activities under conditions that are representative of the stomach, the zymogram gel with the four Rothia strains was also developed at pH 3.0 (Figure 6B). […] To further investigate the pH range over which strain R. aeria was active, Z-YPQ-pNA substrate hydrolysis was measured in solutions ranging in pH from 2.0 to 10.0. […] Substrate hydrolysis rates decreased in parallel with decreasing pH values from pH 7.0 to pH 4.0. At pH 3.0 substrate cleavage was noted only after 72 h incubation. The slow but noticeable enzyme activity of R. aeria at this pH value is consistent with the gliadin zymogram results presented in Figure 6B.
compound,measurement,setting,value
CC(C)C[C@H](NC(=O)[C@@H](N)Cc1ccccc1)C(=O)N[C@@H](CCC(N)=O)C(=O)N1CCC[C@H]1C(=O)N[C@@H](CCC(N)=O)C(=O)N[C@@H](CCC(N)=O)C(=O)N1CCC[C@H]1C(=O)N[C@@H](Cc1ccccc1)C(=O)N1CCC[C@H]1C(=O)N[C@@H](CCC(N)=O)C(=O)N[C@@H](CCC(N)=O)C(=O)N1CCC[C@H]1C(=O)N[C@@H](CCC(N)=O)C(=O)N[C@@H](CCC(N)=O)C(=O)N1CCC[C@H]1C(=O)N[C@@H](Cc1ccc(O)cc1)C(=O)N1CCC[C@H]1C(=O)N[C@@H](CCC(N)=O)C(=O)N[C@@H](CCC(N)=O)C(=O)N1CCC[C@H]1C(=O)N[C@@H](CCC(N)=O)C(=O)N[C@@H](CCC(N)=O)C(=O)N1CCC[C@H]1C(=O)N[C@@H](Cc1ccccc1)C(=O)N1CCC[C@H]1C(=O)N[C@@H](CCC(N)=O)C(=O)O [26-mer] (H-FLQPQQPFPQQPQQPYPQQPQQPFPQ-OH),degradation by trypsin,trypsin,resistant to degradation
same,degradation by pepsin,pepsin,resistant to degradation
same,degradation by chymotrypsin,chymotrypsin,resistant to degradation
same,degradation in a cell suspension of WSA-8 over the 2 h time interval,WSA-8 (R. aeria) [1],sensitive to proteolytic degradation
CC(C)C[C@H](NC(=O)[C@H](CCC(N)=O)NC(=O)[C@@H](N)CC(C)C)C(=O)N[C@@H](CCC(N)=O)C(=O)N1CCC[C@H]1C(=O)N[C@@H](Cc1ccccc1)C(=O)N1CCC[C@H]1C(=O)N[C@@H](CCC(N)=O)C(=O)N1CCC[C@H]1C(=O)N[C@@H](CCC(N)=O)C(=O)N[C@@H](CC(C)C)C(=O)N1CCC[C@H]1C(=O)N[C@@H](Cc1ccc(O)cc1)C(=O)N1CCC[C@H]1C(=O)N[C@@H](CCC(N)=O)C(=O)N1CCC[C@H]1C(=O)N[C@@H](CCC(N)=O)C(=O)N[C@@H](CC(C)C)C(=O)N1CCC[C@H]1C(=O)N[C@@H](Cc1ccc(O)cc1)C(=O)N1CCC[C@H]1C(=O)N[C@@H](CCC(N)=O)C(=O)N1CCC[C@H]1C(=O)N[C@@H](CCC(N)=O)C(=O)N[C@@H](CC(C)C)C(=O)N1CCC[C@H]1C(=O)N[C@@H](Cc1ccc(O)cc1)C(=O)N1CCC[C@H]1C(=O)N[C@@H](CCC(N)=O)C(=O)N1CCC[C@H]1C(=O)N[C@@H](CCC(N)=O)C(=O)N1CCC[C@H]1C(=O)N[C@@H](Cc1ccccc1)C(=O)O [33-mer] (H-LQLQPFPQPQLPYPQPQLPYPQPQLPYPQPQPF-OH),degradation by trypsin,trypsin,resistant to degradation
same,degradation by pepsin,pepsin,resistant to degradation
same,degradation by chymotrypsin,chymotrypsin,resistant to degradation
Cbz-Tyr-Pro-Gln-pNA,not cleaved,[2]; Bifidobacterium dentium HOT-588 (strain PAN-5),− after 24 h
same,not cleaved,[2]; Bifidobacterium dentium HOT-588 (strain PAN-8),− after 24 h
same,not cleaved,[2]; Bifidobacterium dentium HOT-588 (strain PAN-18),− after 24 h
same,not cleaved,[2]; Bifidobacterium dentium HOT-588 (strain PAN-19),− after 24 h
same,not cleaved,[2]; Bifidobacterium dentium HOT-588 (strain PAN-23),− after 24 h
same,not cleaved,[2]; Bifidobacterium longum HOT-B54 (strain WSAN-14),− after 24 h
same,not cleaved,[2]; Bifidobacterium longum HOT-B54 (strain WSAN-16),− after 24 h
same,not cleaved,[2]; Bifidobacterium longum HOT-B54 (strain WSAN-24),− after 24 h
same,not cleaved,[2]; Staphylococcus epidermidis HOT-601 (strain WSA-10),− (inactive) after 24 h
same,not cleaved,[2]; Streptococcus pneumoniae HOT-734 (strain PAN-0),− after 24 h
same,not cleaved,[2]; Veilonella atypica HOT-524 (strain WSAN-25),− after 24 h
same,not cleaved,[3],no Z-YPQ-pNA hydrolysis could be observed
benzyloxycarbonyl-YPQ-paranitroanilide [Z-YPQ-pNA],substrate hydrolysis at pH 2.0,WSA-8 (R. aeria) [4],no Z-YPQ-pNA hydrolysis could be observed
